Data as given in patent US20080096811A1, “[…] VPAC2 RECEPTOR PEPTIDE AGONISTS” (Eli Lilly and Company, published 2008).
*1 amine or outer side, *2 acyl side, *3 side chain or, on linkers, in order; H or OH if unused. Where a SMILES comes first, the peptide text is derived from it. Where no end group is shown, it is not given here. Side-chain parts run from the residue outwards. The star is where a group is joined. γGlu = O=C(O)[C@H](CCC(=O)[*:2])N[*:1]; Hydrocinnamoyl = O=C(CCc1ccccc1)*; Palmitoyl = CCCCCCCCCCCCCCCC(=O)*; Hexanoyl = CCCCCC(=O)*; Bz = O=C(c1ccccc1)*

Columns and labels:
human VPAC2 [1] = target: T1, human VPAC2 (Homo sapiens, UniProt P41587); assay: Filter binding assay, human VPAC2 membranes, 125I-labeled VIP tracer
T1 construct: expressed in transfected cells
T1 sequence (P41587 24-438): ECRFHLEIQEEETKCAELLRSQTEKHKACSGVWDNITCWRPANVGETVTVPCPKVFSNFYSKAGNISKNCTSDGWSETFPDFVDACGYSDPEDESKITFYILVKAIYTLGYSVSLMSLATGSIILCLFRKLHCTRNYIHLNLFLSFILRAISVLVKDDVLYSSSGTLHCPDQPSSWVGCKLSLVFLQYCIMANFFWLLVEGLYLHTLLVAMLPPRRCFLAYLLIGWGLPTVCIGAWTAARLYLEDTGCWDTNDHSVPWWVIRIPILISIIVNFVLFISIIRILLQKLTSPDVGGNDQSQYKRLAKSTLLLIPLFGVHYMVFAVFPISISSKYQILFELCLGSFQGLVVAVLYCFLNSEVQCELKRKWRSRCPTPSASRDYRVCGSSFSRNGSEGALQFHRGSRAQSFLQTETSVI
Method: (§1) For this assay, the solutions and equipment include:
(§2) Presoak solution: 0.5% Polyethyleneamine in Aqua dest.
(§3) Buffer for flushing filter plates: 25 mM […] pH 7.4
(§4) Blocking buffer: 25 mM HEPES pH 7.4; 0.2% protease free BSA
(§5) Assay buffer: 25 mM HEPES pH 7.4; 0.5% protease free BSA
(§6) Dilution and assay plate: PS-Microplate, U form
(§7) Filtration Plate Multiscreen FB Opaque Plate; […] Type B Glasfiber filter
(§8) In order to prepare the filter plates, aspirate the presoak solution by vacuum filtration. Flush the plates twice with 200 μL flush buffer. Add 200 μL blocking buffer to the filter plate. The filter plate is then incubated […] for 1 hour at room temperature.
(§9) Fill the assay plate with 25 μL assay buffer, 25 μL membranes (2.5 μg) suspended in assay buffer, 25 μL compound (agonist) in assay buffer, and 25 μL tracer (about 40000 cpm) in assay buffer. Incubate the filled plate for 1 hour with shaking.
(§10) Conduct the transfer from assay plate to filter plate. Aspirate the blocking buffer by vacuum filtration and wash two times with flush buffer. Transfer 90 μL from the assay plate to the filter plate. Aspirate the 90 μL transferred from assay plate and wash three times with 200 μL flush buffer. Remove the plastic support. Dry for 1 hour at 60° C. Add 30 μL Microscint. Perform the count.

human VPAC2 [2] = target: T1, human VPAC2; assay: DiscoveRx cAMP in vitro potency, human VPAC2; type: cell-based
Method: Also, the cells are washed twice. The cells are incubated in assay buffer plus IBMX for 15 minutes at room temperature. […] The stimuli are present for 30 minutes. Then, the assay buffer is gently removed. […] At day 3, the assay described above for the VPAC2 receptor cell line is performed.

human VPAC1 = target: T2, human VPAC1 (Homo sapiens, UniProt P32241); assay: Filter binding assay, human VPAC1 membranes, 125I-labeled VIP tracer; design: expressed in transfected cells
T2 sequence (P32241 31-457): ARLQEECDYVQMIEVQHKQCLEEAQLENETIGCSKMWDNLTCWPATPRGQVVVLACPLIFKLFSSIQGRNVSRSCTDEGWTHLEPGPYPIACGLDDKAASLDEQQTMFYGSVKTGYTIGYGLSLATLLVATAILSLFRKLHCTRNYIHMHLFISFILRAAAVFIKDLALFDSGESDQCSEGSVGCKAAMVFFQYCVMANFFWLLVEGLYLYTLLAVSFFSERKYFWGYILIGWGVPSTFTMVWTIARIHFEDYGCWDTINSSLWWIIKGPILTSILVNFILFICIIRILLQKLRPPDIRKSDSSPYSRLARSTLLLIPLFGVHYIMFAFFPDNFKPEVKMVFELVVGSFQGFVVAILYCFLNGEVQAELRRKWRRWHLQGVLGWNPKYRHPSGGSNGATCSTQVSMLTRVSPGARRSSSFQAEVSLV
Method: as §1, §2, §3, §4, §5, §6, §7, §8, §9, §10

human VPAC2 [3] = target: T1, human VPAC2; assay: Alpha screen cAMP in vitro potency, human VPAC2; type: cell-based
Method: Alpha screen: Cells are washed in the culture flask once with PBS. Then, the cells are rinsed with enzyme free dissociation buffer. The dissociated cells are removed. The cells are then spun down and washed in stimulation buffer. For each data point, 50,000 cells suspended in stimulation buffer are used. To this buffer, Alpha screen acceptor beads are added along with the stimuli. This mixture is incubated for 60 minutes. Lysis buffer and Alpha screen donor beads are added and are incubated for 60 to 120 minutes. The Alpha screen signal (indicative of intracellular cAMP levels) is read in a suitable instrument (e.g. AlphaQuest from Perlin-Elmer). Steps including Alpha screen donor and acceptor beads are performed in reduced light.

human PAC1 = human PAC1 (Homo sapiens, UniProt P41586); assay: biochemical
Method: as §1, §2, §3, §4, §5, §6, §7, §8, §9, §10

Chain of human PAC1 (P41586 21-468): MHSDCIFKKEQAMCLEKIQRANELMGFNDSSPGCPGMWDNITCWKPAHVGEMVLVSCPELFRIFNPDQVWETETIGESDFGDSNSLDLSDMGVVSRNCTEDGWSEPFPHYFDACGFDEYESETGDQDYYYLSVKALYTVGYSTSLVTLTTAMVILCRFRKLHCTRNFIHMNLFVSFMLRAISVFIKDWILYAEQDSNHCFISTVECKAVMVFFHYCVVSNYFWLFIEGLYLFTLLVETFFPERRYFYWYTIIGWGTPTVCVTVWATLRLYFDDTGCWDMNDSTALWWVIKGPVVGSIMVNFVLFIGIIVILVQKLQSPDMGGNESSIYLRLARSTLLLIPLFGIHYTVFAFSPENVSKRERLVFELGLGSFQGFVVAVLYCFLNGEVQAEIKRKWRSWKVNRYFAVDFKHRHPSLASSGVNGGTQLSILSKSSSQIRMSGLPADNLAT

Row | Compound | IC50 (human VPAC2 [1]) [nM] | EC50 (human VPAC2 [2]) [nM] | IC50 (human VPAC1) [nM] | EC50 (human VPAC2 [3]) [nM] | IC50 (human PAC1) [nM]
1 | CCCCCCCCCCCCCCCC(=O)N[C@@H](CCC(=O)NCCCC[C@H](NC(=O)[C@@H]1CCCN1C(=O)[C@@H]1CCCN1C(=O)[C@@H]1CCCN1C(=O)[C@H](CO)NC(=O)[C@@H](NC(=O)[C@H](CCCNC(=N)N)NC(=O)[C@H](CO)NC(=O)[C@H](CC(N)=O)NC(=O)[C@H](CCCCN)NC(=O)[C@@H](NC(=O)[C@H](CO)NC(=O)[C@H](CCC(N)=O)NC(=O)[C@H](CC(C)C)NC(=O)[C@H](Cc1ccc(O)cc1)NC(=O)[C@H](CCCCN)NC(=O)[C@H](CCCCN)NC(=O)[C@H](C)NC(=O)[C@H](C)NC(=O)[C@@H](NC(=O)[C@H](CCC(N)=O)NC(=O)[C@H](CCCCN)NC(=O)[C@H](CCCNC(=N)N)NC(=O)[C@H](CC(C)C)NC(=O)[C@H](CCCNC(=N)N)NC(=O)[C@@H](NC(=O)[C@H](Cc1ccc(O)cc1)NC(=O)[C@H](CC(N)=O)NC(=O)[C@H](CC(=O)O)NC(=O)[C@@H](NC(=O)[C@H](Cc1ccccc1)NC(=O)[C@@H](NC(=O)[C@H](C)NC(=O)[C@H](CC(=O)O)NC(=O)[C@H](CO)NC(=O)[C@@H](N)Cc1c[nH]cn1)C(C)C)[C@@H](C)O)[C@@H](C)O)C(C)C)[C@@H](C)CC)[C@@H](C)O)C(N)=O)C(=O)O [Agonist P80] (H-HSDAVFTDNYTRLRKQVAAKKYLQSIKNSRTSPPPK([γGlu-Palmitoyl])-NH2) | 31.6 | 2.8 | 284 | 1.82 | 
2 | CC[C@H](C)[C@H](NC(=O)[C@H](CO)NC(=O)[C@H](CCC(N)=O)NC(=O)[C@H](CC(C)C)NC(=O)[C@H](Cc1ccc(O)cc1)NC(=O)[C@H](CCCCN)NC(=O)[C@H](CCCCN)NC(=O)[C@H](C)NC(=O)[C@H](C)NC(=O)[C@@H](NC(=O)[C@H](CCC(N)=O)NC(=O)[C@H](CCCCN)NC(=O)[C@H](CCCNC(=N)N)NC(=O)[C@H](CC(C)C)NC(=O)[C@H](CCCNC(=N)N)NC(=O)[C@@H](NC(=O)[C@H](Cc1ccc(O)cc1)NC(=O)[C@H](CC(N)=O)NC(=O)[C@H](CC(=O)O)NC(=O)[C@@H](NC(=O)[C@H](Cc1ccccc1)NC(=O)[C@@H](NC(=O)[C@H](C)NC(=O)[C@H](CC(=O)O)NC(=O)[C@H](CO)NC(=O)[C@H](Cc1c[nH]cn1)NC(=O)CCc1ccccc1)C(C)C)[C@@H](C)O)[C@@H](C)O)C(C)C)C(=O)N[C@@H](CCCCN)C(=O)N[C@@H](CC(N)=O)C(=O)N[C@@H](CO)C(=O)N[C@@H](CCCNC(=N)N)C(=O)N[C@H](C(=O)N[C@@H](CO)C(=O)N1CCC[C@H]1C(=O)N1CCC[C@H]1C(=O)N1CCC[C@H]1C(N)=O)[C@@H](C)O [Agonist P90] (Hydrocinnamoyl-HSDAVFTDNYTRLRKQVAAKKYLQSIKNSRTSPPP-NH2) | 0.82 | 1.7 | 65 | 4.01 | 
3 | CC[C@H](C)[C@H](NC(=O)[C@H](CO)NC(=O)[C@H](CCC(N)=O)NC(=O)[C@H](CC(C)C)NC(=O)[C@H](Cc1ccc(O)cc1)NC(=O)[C@H](CCCCN)NC(=O)[C@H](CCCCN)NC(=O)[C@H](C)NC(=O)[C@H](C)NC(=O)[C@@H](NC(=O)[C@H](CCC(N)=O)NC(=O)[C@H](CCCCN)NC(=O)[C@H](CCCNC(=N)N)NC(=O)[C@H](CC(C)C)NC(=O)[C@H](CCCNC(=N)N)NC(=O)[C@@H](NC(=O)[C@H](Cc1ccc(O)cc1)NC(=O)[C@H](CC(N)=O)NC(=O)[C@H](CC(=O)O)NC(=O)[C@@H](NC(=O)[C@H](Cc1ccccc1)NC(=O)[C@@H](NC(=O)[C@H](C)NC(=O)[C@H](CC(=O)O)NC(=O)[C@H](CO)NC(=O)[C@H](Cc1c[nH]cn1)NC(=O)c1ccccc1)C(C)C)[C@@H](C)O)[C@@H](C)O)C(C)C)C(=O)N[C@@H](CCCCN)C(=O)N[C@@H](CC(N)=O)C(=O)N[C@@H](CO)C(=O)N[C@@H](CCCNC(=N)N)C(=O)N[C@H](C(=O)N[C@@H](CO)C(=O)N1CCC[C@H]1C(=O)N1CCC[C@H]1C(=O)N1CCC[C@H]1C(N)=O)[C@@H](C)O [Agonist P91] (Bz-HSDAVFTDNYTRLRKQVAAKKYLQSIKNSRTSPPP-NH2) | 0.21 | 0.76 | 58.2 | 1.9 | 
4 | CCCCCC(=O)N[C@@H](Cc1c[nH]cn1)C(=O)N[C@@H](CO)C(=O)N[C@@H](CC(=O)O)C(=O)N[C@@H](C)C(=O)N[C@H](C(=O)N[C@@H](Cc1ccccc1)C(=O)N[C@H](C(=O)N[C@@H](CC(=O)O)C(=O)N[C@@H](CC(N)=O)C(=O)N[C@@H](Cc1ccc(O)cc1)C(=O)N[C@H](C(=O)N[C@@H](CCCNC(=N)N)C(=O)N[C@@H](CC(C)C)C(=O)N[C@@H](CC(C)C)C(=O)N[C@@H](CC(C)C)C(=O)N[C@@H](CCCCN)C(=O)N[C@H](C(=O)N[C@@H](C)C(=O)N[C@@H](C)C(=O)N[C@@H](CCCCN)C(=O)N[C@@H](CCCCN)C(=O)N[C@@H](Cc1ccc(O)cc1)C(=O)N[C@@H](CC(C)C)C(=O)N[C@@H](CCC(N)=O)C(=O)N[C@@H](CO)C(=O)N[C@H](C(=O)N[C@@H](CCCCN)C(=O)N[C@@H](CC(N)=O)C(=O)N[C@@H](CO)C(=O)N[C@@H](CCCNC(=N)N)C(=O)N[C@H](C(=O)N[C@@H](CO)C(=O)N1CCC[C@H]1C(=O)N1CCC[C@H]1C(=O)N1CCC[C@H]1C(N)=O)[C@@H](C)O)[C@@H](C)CC)C(C)C)[C@@H](C)O)[C@@H](C)O)C(C)C [Agonist P156] (Hexanoyl-HSDAVFTDNYTRLLLKVAAKKYLQSIKNSRTSPPP-NH2) | 0.42 |  | 93.3 | 0.29 | 8290
5 | CCCCCC(=O)N[C@@H](Cc1c[nH]cn1)C(=O)N[C@@H](CO)C(=O)N[C@@H](CC(=O)O)C(=O)N[C@@H](C)C(=O)N[C@H](C(=O)N[C@@H](Cc1ccccc1)C(=O)N[C@H](C(=O)N[C@@H](CC(=O)O)C(=O)N[C@@H](CCC(N)=O)C(=O)N[C@@H](Cc1ccc(O)cc1)C(=O)N[C@H](C(=O)N[C@@H](CCCNC(=N)N)C(=O)N[C@@H](CC(C)C)C(=O)N[C@@H](CCCNC(=N)N)C(=O)N[C@@H](CCCCN)C(=O)N[C@@H](CCC(N)=O)C(=O)N[C@H](C(=O)N[C@@H](C)C(=O)N[C@@H](C)C(=O)N[C@@H](CCCCN)C(=O)N[C@@H](CCCCN)C(=O)N[C@@H](Cc1ccc(O)cc1)C(=O)N[C@@H](CC(C)C)C(=O)N[C@@H](CCC(N)=O)C(=O)N[C@@H](CO)C(=O)N[C@H](C(=O)N[C@@H](CCCCN)C(=O)N[C@@H](CCC(N)=O)C(=O)N[C@@H](CO)C(=O)N[C@@H](CCCNC(=N)N)C(=O)N[C@H](C(=O)N[C@@H](CO)C(=O)N1CCC[C@H]1C(=O)N1CCC[C@H]1C(=O)N1CCC[C@H]1C(N)=O)[C@@H](C)O)[C@@H](C)CC)C(C)C)[C@@H](C)O)[C@@H](C)O)C(C)C [Agonist P157] (Hexanoyl-HSDAVFTDQYTRLRKQVAAKKYLQSIKQSRTSPPP-NH2) | 0.14 |  | 30.6 | 0.06 | 222
6 | HSDAVFTDNYTRLRKAAAAKKYLQSIKNSRTSPPP-NH2 [Agonist P97] | 0.82 |  | 97.5 | 0.64 | 87.3
7 | HSDAVFTDNYTRLRKQAAAKKYLQSIKNSRTSPPP-NH2 [Agonist P96] | 0.58 |  | 89.3 | 0.9 | 151
